How the values were obtained:
Conditions in all cases: scale 0 to 100
mustard, wild = experiment: Test D postemergence; type: in vivo, Sinapis arvensis
Description: (§1) Seeds of plant species selected from bluegrass (annual bluegrass, Poa annua), blackgrass (Alopecurus myosuroides), canarygrass (littleseed canarygrass, Phalaris minor), chickweed (common chickweed, Stellaria media), galium (catchweed bedstraw, Galium aparine), bromegrass, downy (downy bromegrass, Bromus tectorum), field poppy (Papaver rhoeas), field violet (Viola arvensis), foxtail, green (green foxtail, Setaria viridis), deadnettle (henbit deadnettle, Lamium amplexicaule), ryegrass, Italian (Italian ryegrass, Lolium multiflorum), kochia (Kochia scoparia), lambsquarters (Chenopodium album), oilseed rape (Brassica napus), pigweed (redroot pigweed, Amaranthus retroflexus), chamomile (scentless chamomile, Matricaria inodora), speedwell (bird's-eye speedwell, Veronica persica), barley, spring (spring barley, Hordeum vulgare), wheat, spring (spring wheat, Triticum aestivum), buckwheat, wild (wild buckwheat, Polygonum convolvulus), mustard, wild (wild mustard, Sinapis arvensis), oat, wild (wild oat, Avena fatua), radish, wild (wild radish, Raphanus raphanistrum), windgrass (Apera spica-venti), Russian thistle (Salsola kali), barley, winter (winter barley, Hordeum vulgare), and wheat, winter (winter wheat, Triticum aestivum) were planted into a silt loam soil and treated preemergence with test chemicals formulated in a non-phytotoxic solvent mixture which included a surfactant.
(§2) At the same time, these species were planted in pots containing Redi-Earth® planting medium (Scotts Company, 14111 Scottslawn Road, Marysville, Ohio 43041) comprising spaghnum peat moss, vermiculite, wetting agent and starter nutrients and treated with postemergence applications of the test chemicals formulated in the same manner. Plants ranged in height from 2 to 18 cm (1- to 4-leaf stage). Treated plants and controls were maintained in a controlled growth environment for 14 to 21 days after which time all species were compared to controls and visually evaluated. Plant response ratings, summarized in Table D, are based on a scale of 0 to 100 where 0 is no effect and 100 is complete control. A dash (-) response means no test result.

ryegrass, Italian = experiment: Test D postemergence; type: in vivo, Lolium multiflorum
Method in brief: (§3)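 Postemergence activity was tested on plants at the 1- to 4-leaf stage (2–18 cm) grown in peat-based medium, and preemergence activity on seeds in silt loam, with chemicals in a surfactant-containing non-phytotoxic solvent. Controlled-environment growth lasted 14–21 days before visual 0–100 scoring.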

pigweed = experiment: Test D preemergence; type: in vivo, Amaranthus retroflexus
Description: as §1, §2

bromegrass, downy = experiment: Test D preemergence; type: in vivo, Bromus tectorum
Method in brief: as §3

chickweed = experiment: Test D postemergence; type: in vivo, Stellaria media
Method in brief: as §3

canarygrass = experiment: Test D preemergence; type: in vivo, Phalaris minor
Method in brief: as §3

galium = experiment: Test D preemergence; type: in vivo, Galium aparine
Method in brief: as §3

oat, wild = experiment: Test D postemergence; type: in vivo, Avena fatua
Method in brief: as §3

lambsquarters [1] = experiment: Test D preemergence; type: in vivo, Chenopodium album
Method in brief: as §3

lambsquarters [2] = experiment: Test D postemergence; type: in vivo, Chenopodium album
Description: as §1, §2

| SMILES | Mustard, Wild plant response rating (mustard, wild; Postemergence, 31 g ai/ha) | Mustard, Wild plant response rating (mustard, wild; Postemergence, 125 g ai/ha) | Mustard, Wild plant response rating (mustard, wild; Postemergence, 250 g ai/ha) | Mustard, Wild plant response rating (mustard, wild; postemergence, 62 g ai/ha) | Ryegrass, Italian plant response rating (ryegrass, Italian; Postemergence, 31 g ai/ha) | Ryegrass, Italian plant response rating (ryegrass, Italian; Postemergence, 125 g ai/ha) | Ryegrass, Italian plant response rating (ryegrass, Italian; Postemergence, 250 g ai/ha) | Ryegrass, Italian plant response rating (ryegrass, Italian; postemergence, 62 g ai/ha) | Plant response rating, Pigweed (pigweed; 62 g ai/ha) | Plant response rating, Pigweed (pigweed; 125 g ai/ha) | Plant response rating, Pigweed (pigweed; 250 g ai/ha) | Plant response rating, Bromegrass, Downy (bromegrass, downy; 31 g ai/ha) | Plant response rating, Bromegrass, Downy (bromegrass, downy; 62 g ai/ha) | Plant response rating, Bromegrass, Downy (bromegrass, downy; 125 g ai/ha) | Plant response rating, Bromegrass, Downy (bromegrass, downy; 250 g ai/ha) | Chickweed plant response rating (chickweed; Postemergence, 31 g ai/ha) | Chickweed plant response rating (chickweed; Postemergence, 125 g ai/ha) | Chickweed plant response rating (chickweed; Postemergence, 250 g ai/ha) | Chickweed plant response rating (chickweed; postemergence, 62 g ai/ha) | Plant response rating, Canarygrass (canarygrass; 31 g ai/ha) | further results |
| --- | --- | --- | --- | --- | --- | --- | --- | --- | --- | --- | --- | --- | --- | --- | --- | --- | --- | --- | --- | --- | --- |
| CCCc1cc(C(=O)NCC(F)(F)F)nn1Cc1cc(C(F)(F)F)nn1C [Compound 138] | 100 | 100 | 100 | 100 | 15 | 15 | 55 | 15 | 100 | 100 | 100 | 10 | 15 | 20 | 65 | 70 | 80 | 75 | 70 | 15 | Plant response rating, Canarygrass (canarygrass; 62 g ai/ha): 70; Plant response rating, Canarygrass (canarygrass; 125 g ai/ha): 100; Plant response rating, Canarygrass (canarygrass; 250 g ai/ha): 100; Plant response rating, Galium (galium; 62 g ai/ha): 100; Plant response rating, Galium (galium; 125 g ai/ha): 100; Plant response rating, Galium (galium; 250 g ai/ha): 100; Oat, Wild plant response rating (oat, wild; Postemergence, 31 g ai/ha): 20; Oat, Wild plant response rating (oat, wild; Postemergence, 125 g ai/ha): 25; Oat, Wild plant response rating (oat, wild; Postemergence, 250 g ai/ha): 60; Oat, Wild plant response rating (oat, wild; postemergence, 62 g ai/ha): 20; Plant response rating, Lambsquarters (lambsquarters [1]; 62 g ai/ha): 85; Plant response rating, Lambsquarters (lambsquarters [1]; 125 g ai/ha): 100; Plant response rating, Lambsquarters (lambsquarters [1]; 250 g ai/ha): 100; Lambsquarters plant response rating (lambsquarters [2]; Postemergence, 31 g ai/ha): 80; Lambsquarters plant response rating (lambsquarters [2]; Postemergence, 125 g ai/ha): 80; Lambsquarters plant response rating (lambsquarters [2]; Postemergence, 250 g ai/ha): 80; Lambsquarters plant response rating (lambsquarters [2]; postemergence, 62 g ai/ha): 80 |
| CCOc1cc(C(=O)NC2CC2)nn1Cc1ccnc(C(F)(F)F)c1 [Compound 189] | 40 | 40 | 80 | 40 | 10 | 20 | 30 | 10 | 95 | 100 | 100 | 0 | 15 | 20 | 55 | 75 | 70 | 85 | 75 | 10 | Plant response rating, Canarygrass (canarygrass; 62 g ai/ha): 50; Plant response rating, Canarygrass (canarygrass; 125 g ai/ha): 85; Plant response rating, Canarygrass (canarygrass; 250 g ai/ha): 100; Plant response rating, Galium (galium; 62 g ai/ha): 75; Plant response rating, Galium (galium; 125 g ai/ha): 70; Plant response rating, Galium (galium; 250 g ai/ha): 100; Oat, Wild plant response rating (oat, wild; Postemergence, 31 g ai/ha): 20; Oat, Wild plant response rating (oat, wild; Postemergence, 125 g ai/ha): 30; Oat, Wild plant response rating (oat, wild; Postemergence, 250 g ai/ha): 35; Oat, Wild plant response rating (oat, wild; postemergence, 62 g ai/ha): 20; Plant response rating, Lambsquarters (lambsquarters [1]; 62 g ai/ha): 100; Plant response rating, Lambsquarters (lambsquarters [1]; 125 g ai/ha): 100; Plant response rating, Lambsquarters (lambsquarters [1]; 250 g ai/ha): 100; Lambsquarters plant response rating (lambsquarters [2]; Postemergence, 31 g ai/ha): 75; Lambsquarters plant response rating (lambsquarters [2]; Postemergence, 125 g ai/ha): 80; Lambsquarters plant response rating (lambsquarters [2]; Postemergence, 250 g ai/ha): 90; Lambsquarters plant response rating (lambsquarters [2]; postemergence, 62 g ai/ha): 75 |

Source: US20150105252A1, “SUBSTITUTED PYRAZOLES AS HERBICIDES” (E I DU PONT DE NEMOURS AND COMPANY, priority 2013, published 2015)
